Measurements from the supplement of paper PMC11061612.

What was measured:
AZD1775 = compound: C=CCn1c(=O)c2cnc(Nc3ccc(N4CCN(C)CC4)cc3)nc2n1-c1cccc(C(C)(C)O)n1 [AZD1775]; settings: max 3 µM
Outline: (§1)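 Viability was measured with CellTiter-Glo 2.0 luminescence after 72 hours of dosing at a final DMSO of typically 0.2%, and scaled between blank-well and DMSO-well means. Beforehand, cancer cell lines sat 24 hours at 37°C and 5% CO2 in 1536-well plates in 7.5 μl DMEM/F12 or RPMI with 10% FBS. A non-linear mixed effects model fitted two-parameter logistic curves to the dose responses. The single-agent IC50 comes from these fits.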

Lapatinib = compound: CS(=O)(=O)CCNCc1ccc(-c2ccc3ncnc(Nc4ccc(OCc5cccc(F)c5)c(Cl)c4)c3c2)o1 [Lapatinib]; settings: max 10 µM
Outline: as §1

Savolitinib = compound: C[C@@H](c1ccc2nccn2c1)n1nnc2ncc(-c3cnn(C)c3)nc21 [Savolitinib]; settings: max 1 µM
Outline: as §1

Taselisib = compound: Cc1nc(-c2cn3c(n2)-c2ccc(-c4cnn(C(C)(C)C(N)=O)c4)cc2OCC3)n(C(C)C)n1 [Taselisib]; settings: max 10 µM
Outline: as §1

Paclitaxel = compound: CC(=O)O[C@H]1C(=O)[C@@]2(C)[C@H]([C@H](OC(=O)c3ccccc3)[C@]3(O)C[C@H](OC(=O)[C@H](O)[C@@H](NC(=O)c4ccccc4)c4ccccc4)C(C)=C1C3(C)C)[C@]1(OC(C)=O)CO[C@@H]1C[C@@H]2O [Paclitaxel]; settings: max 3 µM
Outline: as §1

Crizotinib = compound: C[C@@H](Oc1cc(-c2cnn(C3CCNCC3)c2)cnc1N)c1c(Cl)ccc(F)c1Cl [Crizotinib]; settings: max 10 µM
Outline: as §1

AZD0156 = compound: CN(C)CCCOc1ccc(-c2ccc3ncc4c(c3c2)n(C2CCOCC2)c(=O)n4C)cn1 [AZD0156]; settings: max 3 µM
Outline: as §1

Venetoclax = compound: CC1(C)CCC(CN2CCN(c3ccc(C(=O)NS(=O)(=O)c4ccc(NCC5CCOCC5)c([N+](=O)[O-])c4)c(Oc4cnc5[nH]ccc5c4)c3)CC2)=C(c2ccc(Cl)cc2)C1 [Venetoclax]; settings: max 1 µM
Outline: as §1

Carboplatin = compound: C1CC(C1)(C(=O)[O-])C(=O)[O-].N.N.[Pt+2] [Carboplatin]; settings: max 10 µM
Outline: as §1

AZD5991 = compound: Cc1c2c(nn1C)CSCc1cc(n(C)n1)CSc1cc(c3ccccc3c1)OCCCc1c(C(=O)O)n(C)c3c-2c(Cl)ccc13 [AZD5991]; settings: max 1 µM
Outline: as §1

AZD6738 = compound: C[C@@H]1COCCN1C2=NC(=NC(=C2)C3(CC3)[S@](=N)(=O)C)C4=C5C=CNC5=NC=C4 [AZD6738]; settings: max 10 µM
Outline: as §1

AZD8186 = compound: C[C@@H](Nc1cc(F)cc(F)c1)c1cc(C(=O)N(C)C)cc2c(=O)cc(N3CCOCC3)oc12 [AZD8186]; settings: max 10 µM
Outline: as §1

SN-38 = compound: CCc1c2c(nc3ccc(O)cc13)-c1cc3c(c(=O)n1C2)COC(=O)[C@]3(O)CC [SN-38]; settings: max 0.3 µM
Outline: as §1

Palbociclib = compound: CC(=O)c1c(C)c2cnc(Nc3ccc(N4CCNCC4)cn3)nc2n(C2CCCC2)c1=O [Palbociclib]; settings: max 10 µM
Outline: as §1

Olaparib = compound: O=C(c1cc(Cc2n[nH]c(=O)c3ccccc23)ccc1F)N1CCN(C(=O)C2CC2)CC1 [Olaparib]; settings: max 10 µM
Outline: as §1

Alisertib = compound: COc1cc(Nc2ncc3c(n2)-c2ccc(Cl)cc2C(c2c(F)cccc2OC)=NC3)ccc1C(=O)O [Alisertib]; settings: max 10 µM
Outline: as §1

Dasatinib = compound: CC1=C(C(=CC=C1)Cl)NC(=O)C2=CN=C(S2)NC3=CC(=NC(=N3)C)N4CCN(CC4)CCO [Dasatinib]; settings: max 2 µM
Outline: as §1

SRA737 = compound: N#Cc1cnc(Nc2cc(NC[C@H]3CNCCO3)c(C(F)(F)F)cn2)cn1 [SRA737]; settings: max 10 µM
Outline: as §1

AZD7648 = compound: Cc1cc2ncnn2cc1Nc1ncc2c(n1)n(C1CCOCC1)c(=O)n2C [AZD7648]; settings: max 10 µM
Outline: as §1

Doxorubicin = compound: COc1cccc2c1C(=O)c1c(O)c3c(c(O)c1C2=O)C[C@@](O)(C(=O)CO)C[C@@H]3O[C@H]1C[C@H](N)[C@H](O)[C@H](C)O1 [Doxorubicin]; settings: max 1 µM
Outline: as §1

AZD2811 = compound: CCN(CCO)CCCOc1ccc2c(Nc3cc(CC(=O)Nc4cccc(F)c4)[nH]n3)ncnc2c1 [AZD2811]; settings: max 1 µM
Outline: as §1

AZD5153 = compound: COc1nnc2ccc(N3CCC(c4ccc(OCCN5CCN(C)C(=O)[C@H]5C)cc4)CC3)nn12 [AZD5153]; settings: max 1 µM
Outline: as §1

Gefitinib = compound: COc1cc2ncnc(Nc3ccc(F)c(Cl)c3)c2cc1OCCCN1CCOCC1 [Gefitinib]; settings: max 10 µM
Outline: as §1

Prexasertib = compound: COc1cccc(OCCCN)c1-c1cc(Nc2cnc(C#N)cn2)n[nH]1 [Prexasertib]; settings: max 1 µM
Outline: as §1

AZD1390 = compound: CC(C)n1c(=O)n(C)c2cnc3cc(F)c(-c4ccc(OCCCN5CCCCC5)nc4)cc3c21 [AZD1390]; settings: max 0.3 µM
Outline: as §1

SG3199 = compound: CC1=CN2[C@@H](C1)C=NC3=CC(=C(C=C3C2=O)OC)OCCCCCOC4=C(C=C5C(=C4)N=C[C@@H]6CC(=CN6C5=O)C)OC [SG3199]; settings: max 0.001 µM
Outline: as §1

Selumetinib = compound: Cn1cnc2c(F)c(Nc3ccc(Br)cc3Cl)c(C(=O)NOCCO)cc21 [Selumetinib]; settings: max 10 µM
Outline: as §1

AZD5363 = compound: C1CN(CCC1(C(=O)N[C@@H](CCO)C2=CC=C(C=C2)Cl)N)C3=NC=NC4=C3C=CN4 [AZD5363]; settings: max 10 µM
Outline: as §1

Etoposide = compound: COc1cc([C@@H]2c3cc4c(cc3[C@@H](O[C@@H]3O[C@@H]5CO[C@@H](C)O[C@H]5[C@H](O)[C@H]3O)[C@H]3COC(=O)[C@H]23)OCO4)cc(OC)c1O [Etoposide]; settings: max 10 µM
Outline: as §1

Gemcitabine = compound: Nc1ccn([C@@H]2O[C@H](CO)[C@@H](O)C2(F)F)c(=O)n1 [Gemcitabine]; settings: max 0.3 µM
Outline: as §1

[1] = compound: O=C(Nc1ccc2[nH]nc(-c3ccncc3)c2c1)[C@@H]1CCN(CC(=O)N2CCN(c3ccc(-c4ncccn4)cc3)CC2)C1; settings: max 5 µM
Outline: as §1

AZD4320 = compound: CN(CC[C@H](CSC1=CC=CC=C1)NC2=C(C=C(C=C2)S(=O)(=O)NC(=O)C3=CC=C(C=C3)N4CCC(CC4)[C@H](C5=CC=CC=C5C6=CC=C(C=C6)Cl)O)S(=O)(=O)C(F)(F)F)CCO [AZD4320]; settings: max 1 µM
Outline: as §1

5-Fluorouracil = compound: O=c1[nH]cc(F)c(=O)[nH]1 [5-Fluorouracil]; settings: max 20 µM
Outline: as §1

MK-2206 = compound: NC1(c2ccc(-c3nc4ccn5c(=O)[nH]nc5c4cc3-c3ccccc3)cc2)CCC1 [MK-2206]; settings: max 10 µM
Outline: as §1

Trametinib = compound: CC(=O)Nc1cccc(-n2c(=O)n(C3CC3)c(=O)c3c(Nc4ccc(I)cc4F)n(C)c(=O)c(C)c32)c1 [Trametinib]; settings: max 1 µM
Outline: as §1

| Cell Line | IC50, cell viability 72 h (AZD1775) | IC50, cell viability 72 h (Lapatinib) | IC50, cell viability 72 h (Savolitinib) | IC50, cell viability 72 h (Taselisib) | IC50, cell viability 72 h (Paclitaxel) | IC50, cell viability 72 h (Crizotinib) | IC50, cell viability 72 h (AZD0156) | IC50, cell viability 72 h (Venetoclax) | IC50, cell viability 72 h (Carboplatin) | IC50, cell viability 72 h (AZD5991) | IC50, cell viability 72 h (AZD6738) | IC50, cell viability 72 h (AZD8186) | IC50, cell viability 72 h (SN-38) | IC50, cell viability 72 h (Palbociclib) | IC50, cell viability 72 h (Olaparib) | IC50, cell viability 72 h (Alisertib) | IC50, cell viability 72 h (Dasatinib) | IC50, cell viability 72 h (SRA737) | IC50, cell viability 72 h (AZD7648) | IC50, cell viability 72 h (Doxorubicin) | IC50, cell viability 72 h (AZD2811) | IC50, cell viability 72 h (AZD5153) | IC50, cell viability 72 h (Gefitinib) | IC50, cell viability 72 h (Prexasertib) | IC50, cell viability 72 h (AZD1390) | IC50, cell viability 72 h (SG3199) | IC50, cell viability 72 h (Selumetinib) | IC50, cell viability 72 h (AZD5363) | IC50, cell viability 72 h (Etoposide) | IC50, cell viability 72 h (Gemcitabine) | IC50, cell viability 72 h [1] | IC50, cell viability 72 h (AZD4320) | IC50, cell viability 72 h (5-Fluorouracil) | IC50, cell viability 72 h (MK-2206) | IC50, cell viability 72 h (Trametinib) |
| --- | --- | --- | --- | --- | --- | --- | --- | --- | --- | --- | --- | --- | --- | --- | --- | --- | --- | --- | --- | --- | --- | --- | --- | --- | --- | --- | --- | --- | --- | --- | --- | --- | --- | --- | --- |
| EW-24 (Ewing's Sarcoma) | > 3000 nM | > 10 µM | > 1000 nM | 2.45 µM | 255 nM | > 10 µM | > 3000 nM | > 1000 nM | > 10 µM | > 1000 nM | > 10 µM | > 10 µM | 12.9 nM | > 10 µM | > 10 µM | > 10 µM | > 2000 nM | 8.42 µM | > 10 µM | > 1000 nM | > 1000 nM | > 1000 nM | > 10 µM | 120 nM | > 300 nM | > 1 nM | > 10 µM | > 10 µM | 5.33 µM | 31 nM | > 5000 nM | 204 nM | > 20 µM | > 10 µM | > 1000 nM |
| EoL-1-cell (Acute Myeloid Leukemia) | 158 nM | > 10 µM | > 1000 nM | 6.19 µM | 4.12 nM | 2.29 µM | > 3000 nM | 61.8 nM | > 10 µM | 60.6 nM | 0.765 µM | > 10 µM | 5.99 nM | 4.64 µM | > 10 µM | 0.0428 µM | 5.61 nM | – | > 10 µM | 69.1 nM | 9.92 nM | 41.3 nM | > 10 µM | 4.87 nM | > 300 nM | > 1 nM | 1.55 µM | 3.19 µM | 0.157 µM | 6.7 nM | 506 nM | 8.51 nM | 3.96 µM | 4.05 µM | 15.5 nM |
| Hs-766T (Pancreatic Carcinoma) | > 3000 nM | > 10 µM | > 1000 nM | > 10 µM | > 3000 nM | > 10 µM | > 3000 nM | > 1000 nM | > 10 µM | > 1000 nM | > 10 µM | > 10 µM | > 300 nM | > 10 µM | > 10 µM | > 10 µM | > 2000 nM | > 10 µM | > 10 µM | > 1000 nM | > 1000 nM | > 1000 nM | > 10 µM | 163 nM | > 300 nM | > 1 nM | 5.43 µM | > 10 µM | > 10 µM | > 300 nM | > 5000 nM | > 1000 nM | > 20 µM | > 10 µM | 113 nM |
